US20080146602A1, “Thienopyridine Derivatives, Production Method and Use Thereof” (TAKEDA PHARMACEUTICAL COMPANY LIMITED, priority 2004, published 2008)
Marks after values point to notes of the source that are not given here.

Columns and labels:
[1] = tested on: Adjuvant Arthritis in Rat; assay: Effect on adjuvant arthritis in rat (footpad swelling suppression); type: in vivo; details: male Lewis rat, Freund's complete adjuvant; 0.3 mg/kg orally once a day for 14 days; edema volume of left hind paw, Day 14; n=6
Method: Effect on Adjuvant Arthritis in Rat
A male Lewis rat (7-week-old, Crea Japan Ltd.) was sensitized by an intracutaneous injection of 0.05 ml of Freund's complete adjuvant: 0.5% liquid paraffin suspension of dead tubercle bacillus) into the footpad of the right hind paw, and the test compound suspended in 0.5% methyl cellulose was orally administered once a day for 14 days. Immediately before sensitization (Day 0) and 14th day (Day 14), the edema volume of the left hind paw was measured by a plethysmometer (manufactured by Ugo Basile, Italy) and the footpad swelling suppression rate (%) relative to unsensitized rat was determined by the following formula.
The results are shown in mean ±S.E. of each group (n=6) and compared and detected by the Dunnett's method. In addition, less than 5% of the critical rate was taken as significant.

| Structure (SMILES) | melting point | Swelling suppression rate (%) [1] |
| --- | --- | --- |
| NC(=O)[C@H]1CCc2c(sc3nc(CN4C(=O)CSC4=O)c(Cl)c(-c4ccc(O)cc4)c23)C1 [Example 9, (7S)-3-Chloro-2-[(2,4-dioxo-1,3-thiazolidin-3-yl)methyl]-5,6,7,8-tetrahydro-4-(4-hydroxyphenyl)[1]benzothieno[2,3-b]pyridine-7-carboxamide] | 282 to 283 °C |  |
| NC(=O)[C@H]1CCc2c(sc3nc(CN4C(=O)CCC4=O)c(Cl)c(-c4ccc(O)cc4)c23)C1 [Example 8, (7S)-3-Chloro-2-[(2,5-dioxo-1-pyrrolidinyl)methyl]-5,6,7,8-tetrahydro-4-(4-hydroxyphenyl)[1]benzothieno[2,3-b]pyridine-7-carboxamide] | 299 to 300 °C |  |
| COc1ccc(-c2c(Cl)c(CN3C(=O)COC3=O)nc3sc4c(c23)CC[C@H](C(N)=O)C4)cc1 [Example 4-2, (7S)-3-chloro-2-[(2,4-dioxo-1,3-oxazolidin-3-yl)methyl]-5,6,7,8-tetrahydro-4-(4-methoxyphenyl)[1]benzothieno[2,3-b]pyridine-7-carboxamide] |  | 82* % |
| COc1ccc(-c2c(Cl)c(CN3C(=O)CSC3=O)nc3sc4c(c23)CC[C@@H](C(N)=O)C4)cc1 (stereo in doubt) [Example 6-2, 3-chloro-2-[(2,4-dioxo-1,3-thiazolidin-3-yl)methyl]-5,6,7,8-tetrahydro-4-(4-methoxyphenyl)[1]benzothieno[2,3-b]pyridine-7-carboxamide] |  | 87* % |
| COc1ccc(-c2c(Cl)c(CN3C(=O)CCC3=O)nc3sc4c(c23)CC[C@@H](C(N)=O)C4)cc1 (stereo in doubt) [Example 5-2, 3-chloro-2-[(2,5-dioxo-1-pyrrolidinyl)methyl]-5,6,7,8-tetrahydro-4-(4-methoxyphenyl)[1]benzothieno[2,3-b]pyridine-7-carboxamide] |  | 88* % |
